This note sets out measurements from ChEMBL document CHEMBL1914428, “Investigating the role of the hydroxyl groups of substrate erythrose 4-phosphate in the reaction catalysed by the first enzyme of the shikimate pathway” (Bioorg Med Chem Lett, 2011).

The subject of experiment [1] is Pyrococcus furiosus. Nature of the experiment: Ratio of Kcat to Km of Pyrococccus furiosus DAH7P synthase type 1beta.
The test system of experiment [2] is Mycobacterium tuberculosis. Kind of experiment: Ratio of Kcat to Km of Mycobacterium tuberculosis DAH7P synthase type 2.
Experiment [3] has as its system Escherichia coli. Nature of the experiment: Activity of Escherichia coli phenylalanine-sensitive DAH7P synthase type 1alpha by spectrophotometry in the presence of Mn2+.
Experiment [4] concerns Escherichia coli. Kind of experiment: Ratio of Kcat to Km of Escherichia coli phenylalanine-sensitive DAH7P synthase type 1alpha.
Experiment [5] relates to Pyrococcus furiosus. Kind of experiment: Activity of Pyrococccus furiosus DAH7P synthase type 1beta by spectrophotometry in the presence of Mn2+.
Experiment [6] has as its system Mycobacterium tuberculosis. Kind of experiment: Activity of Mycobacterium tuberculosis DAH7P synthase type 2 by spectrophotometry in the presence of Mn2+.
Experiment [7] deals with Pyrococcus furiosus. Nature of the experiment: Inhibition of Pyrococccus furiosus DAH7P synthase type 1beta.

Activity calls are given as the source filed them. The rule behind the calls is not given here.

For `O=C[C@H](O)[C@H](O)COP(=O)(O)O`, the kcat/Km – broadly, the second-order rate constant that governs catalysis at low substrate concentration – in the experiment on Pyrococcus furiosus [1] was determined as 160000 M⁻¹ s⁻¹; in experiment [2], 150000 M⁻¹ s⁻¹; in the experiment on Escherichia coli [4] it was 670000 M⁻¹ s⁻¹. Moreover, the Km (usually the concentration of substrate that gives half-maximal velocity) in the experiment with Escherichia coli [3] turned out to be 39 µM; with Pyrococcus furiosus [5], 9 µM; in experiment [6] it was 37 µM. Also, the kcat (commonly the number of substrate molecules converted per active site and unit of time at saturation) was 26 s⁻¹ with Escherichia coli [3], 1.4 s⁻¹ in the experiment on Pyrococcus furiosus [5] and 5.4 s⁻¹ in experiment [6].
As for `O=C[C@H](O)CCOP(=O)(O)O`, the kcat/Km in the experiment with Pyrococcus furiosus [1] is 11000 M⁻¹ s⁻¹; in experiment [2], 31000 M⁻¹ s⁻¹; in the experiment with Escherichia coli [4] it was 2000 M⁻¹ s⁻¹. In addition, the Km in the experiment with Escherichia coli [3] was determined as 2700 µM; in the experiment with Pyrococcus furiosus [5], 200 µM; in experiment [6], 77 µM. The turnover number (kcat) in the experiment with Escherichia coli [3] amounted to 4.5 s⁻¹; with Pyrococcus furiosus [5], 2.1 s⁻¹; in experiment [6], 2.4 s⁻¹.
As to `O=CC[C@H](O)COP(=O)(O)O`, the figures for the kcat/Km (with Pyrococcus furiosus [1]; in experiment [2]; with Escherichia coli [4]) were 500000 M⁻¹ s⁻¹, 110000 M⁻¹ s⁻¹ and 60000 M⁻¹ s⁻¹, respectively. In addition, the Km in the experiment with Escherichia coli [3] is 410 µM; in the experiment on Pyrococcus furiosus [5] it was 6 µM; in experiment [6] it was 46 µM. Further, the kcat was 25 s⁻¹ in the experiment on Escherichia coli [3], 3 s⁻¹ in the experiment on Pyrococcus furiosus [5] and 4.9 s⁻¹ in experiment [6].
In the case of `O=CC(O)CCOP(=O)(O)O` (racemic), in the experiment on Escherichia coli [3], the Michaelis-Menten constant (Km) is 2600 µM. In the experiment on Pyrococcus furiosus [7], the inhibition result is “Active”.
